Measured values from publication PMC8673761, “CLN7 is an organellar chloride channel regulating lysosomal function” (Science Advances, 2021).
Where a chain is given by its changes, count along the chain named.

Key:
[1] = target: T1, YCR023C (yeast CLN7 homolog) (Saccharomyces cerevisiae, UniProt P25351); experiment: whole-cell patch clamp in HeLa, Cl- current; format: cell-based, Homo sapiens; details: EGFP-tagged; bath 150 mM HCl pH 4.6 (NMDG), pipette pH 7.2
T1 construct: full length, codon-optimised synthetic gene, N-terminal EGFP tag kept (pEGFP-C1); expressed in HeLa cells
T1 sequence (P25351 1-611): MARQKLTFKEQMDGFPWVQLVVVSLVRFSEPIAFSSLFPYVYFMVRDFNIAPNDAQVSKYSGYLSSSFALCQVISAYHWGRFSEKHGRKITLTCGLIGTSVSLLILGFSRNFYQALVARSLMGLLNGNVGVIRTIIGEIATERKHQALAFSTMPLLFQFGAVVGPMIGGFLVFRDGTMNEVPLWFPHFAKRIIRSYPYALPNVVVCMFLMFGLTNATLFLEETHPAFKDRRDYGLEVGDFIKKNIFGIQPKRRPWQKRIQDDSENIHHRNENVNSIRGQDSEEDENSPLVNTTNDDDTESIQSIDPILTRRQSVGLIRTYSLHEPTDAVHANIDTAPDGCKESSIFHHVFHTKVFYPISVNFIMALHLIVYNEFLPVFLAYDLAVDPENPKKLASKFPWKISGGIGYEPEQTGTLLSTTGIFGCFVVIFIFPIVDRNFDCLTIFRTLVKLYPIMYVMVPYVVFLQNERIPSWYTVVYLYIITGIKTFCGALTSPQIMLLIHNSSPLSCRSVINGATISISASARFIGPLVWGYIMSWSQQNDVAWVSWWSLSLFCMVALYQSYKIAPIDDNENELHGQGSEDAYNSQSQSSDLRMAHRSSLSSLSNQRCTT

hCLN7 (EGFP-CLN7, MFSD8) [2] = target: T2, hCLN7 (EGFP-CLN7, MFSD8) (Homo sapiens, UniProt Q8NHS3); experiment: whole-endolysosomal patch clamp, Cl- current; format: cell-based
T2 construct: full length, 518 residues, N-terminal EGFP tag kept (pEGFP-C2); expressed in HEK293T (endolysosomes); PM-targeted mutant in HeLa
T2 sequence (Q8NHS3 1-518): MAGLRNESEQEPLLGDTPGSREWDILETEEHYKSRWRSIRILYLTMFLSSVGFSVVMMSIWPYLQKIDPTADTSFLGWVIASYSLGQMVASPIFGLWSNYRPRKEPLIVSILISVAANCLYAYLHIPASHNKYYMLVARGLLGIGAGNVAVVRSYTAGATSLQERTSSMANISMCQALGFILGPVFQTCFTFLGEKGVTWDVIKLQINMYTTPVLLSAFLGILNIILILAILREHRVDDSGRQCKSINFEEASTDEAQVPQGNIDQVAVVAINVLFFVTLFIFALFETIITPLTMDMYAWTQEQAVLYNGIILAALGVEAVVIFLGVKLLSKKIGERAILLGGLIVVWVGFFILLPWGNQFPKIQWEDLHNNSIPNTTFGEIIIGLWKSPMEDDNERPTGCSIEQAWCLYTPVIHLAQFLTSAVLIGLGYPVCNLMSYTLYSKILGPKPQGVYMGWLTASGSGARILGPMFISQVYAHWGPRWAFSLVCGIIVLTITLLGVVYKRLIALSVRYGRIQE

hCLN7 (EGFP-CLN7, MFSD8) [3] = target: T3, hCLN7 (EGFP-CLN7, MFSD8) (Homo sapiens, UniProt Q8NHS3, L13A/L14A); experiment: whole-cell patch clamp in HeLa, Cl- current; format: cell-based; details: EGFP-tagged, plasma membrane-targeted; bath 150 mM HCl pH 4.6 (NMDG), pipette pH 7.2
T3 construct: full length, 518 residues, N-terminal EGFP tag kept (pEGFP-C2); expressed in HEK293T (endolysosomes); PM-targeted mutant in HeLa
T3 sequence (Q8NHS3 1-518 L13A/L14A): T2 sequence (Q8NHS3 1-518) with L13A, L14A

`O=S(=O)(O)c1cc(N=C=S)ccc1/C=C/c1ccc(N=C=S)cc1S(=O)(=O)O` [DIDS, 4,4‘-diisothiocyano-2,2‘-stilbenedisulfonate] was tested, and the “whole-cell patch clamp in HeLa, Cl- current” value (“whole-cell patch clamp in HeLa” for short) [1] was “including outward rectification and sensitivities to DIDS, NFA, and NPPB” and the IC50 (hCLN7 (EGFP-CLN7, MFSD8) [2]) was 32.3 ± 6.08 µM.

For `O=C(O)c1cccnc1Nc1cccc(C(F)(F)F)c1` [NFA], the “whole-cell patch clamp in HeLa” value [1] was “including outward rectification and sensitivities to DIDS, NFA, and NPPB”, the IC50 (hCLN7 (EGFP-CLN7, MFSD8) [2]) was 42.4 ± 7.13 µM and the “whole-cell patch clamp in HeLa” value (hCLN7 (EGFP-CLN7, MFSD8) [3]) was “the whole-cell currents were also outward-rectifying and sensitive to pH, DIDS, NFA, and NPPB”.

In the case of `O=C(O)c1cc([N+](=O)[O-])ccc1NCCCc1ccccc1` [NPPB, 5-Nitro-2-(3-phenylpropylamino)benzoic acid], the “whole-cell patch clamp in HeLa” value [1] is reported as “including outward rectification and sensitivities to DIDS, NFA, and NPPB”, the IC50 (hCLN7 (EGFP-CLN7, MFSD8) [2]) is reported as 0.0069 ± 0.00157 µM and the “whole-cell patch clamp in HeLa” value (hCLN7 (EGFP-CLN7, MFSD8) [3]) is reported as “the whole-cell currents were also outward-rectifying and sensitive to pH, DIDS, NFA, and NPPB”.
